Values joined by “and” are separate entries in the source; they are usually repeats but may differ in a detail not shown here. Identical values can stand only once. Like-named read-outs stand apart in the source and are kept apart here. Bounds are passed on as bounds.

Assay [1] deals with Human Jurkat T-cells (clone N). Kind of assay: Jurkat T-cell activation (anti-TCR, CD69 upregulation). Format: cell-based. In short, it runs like this: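 Jurkat cells in RPMI + 5% FBS preincubated with compound 1 h at 37 °C, then stimulated with anti-TCR C305 at 500 ng/ml for 20 h. CD69 surface expression stained with anti-CD69-APC and read by flow cytometry; IC50 versus solvent-only control.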

Assay [2] relates to cultured human mast cells (CHMC). Put plainly: CHMC low cell density ionomycin activation: tryptase assay. Format: cell-based.
Assay [3] shares this test system. Put plainly: CHMC high cell density IgE activation: LTC4. Format: cell-based. On the procedure:
(§1) After sensitizing, cells are counted, pelleted (1000 rpm, 5-10 minutes), and resuspended at 1-2 ×10^6 cells/ml in MT buffer. Add 100 ul of cell suspension to each well and 100 ul of compound dilutions. The final vehicle concentration is 0.5% DMSO. Incubate at 37° C. (5% CO2) for 1 hour. After 1 hour of compound treatment, stimulate cells with 6× anti-IgE. Mix wells with the cells and allow plates to incubate at 37° C. (5% CO2) for one hour. After 1 hour incubation, pellet cells (10 minutes, 1000 RPM) and collect 200 ul per well of the supernatant, being careful not to disturb pellet. Place the supernatant plate on ice. During the 7-hour step (see next) perform tryptase assay on supernatant that had been diluted 1:500. Resuspend cell pellet in 240 ul of CM media containing 0.5% DMSO and corresponding concentration of compound. Incubate CHMC cells for 7 hours at 37° C. (5% CO2). After incubation, pellet cells (1000 RPM, 10 minutes) and collect 225 ul per well and place in −80° C. until ready to perform ELISAS. ELISAS are performed on appropriately diluted samples (determined empirically for each donor cell population so that the sample measurement falls within the standard curve) following the supplier's instructions.

Assay [4] shares this test system. Kind of assay: CHMC high cell density IgE activation: TNFalpha. The class given is cell-based. Conditions: read-out: CHMC high density TNF-alpha. How it is done:
as §1

For assay [5] the test system is unchanged. Put plainly: CHMC high cell density IgE activation: histamine. The class given is cell-based. How it is done:
as §1

The test system is the same in assay [6]. Kind of assay: CHMC low cell density IgE activation: tryptase assay. The class given is cell-based. A digest of the protocol:
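Low-density CHMC assay: donor-adjusted 1000-1500 cells/well, MT buffer, 1 hr 37° C preincubation; anti-IgE stimulus 30 min 37° C versus MT-only controls; supernatant tryptase by substrate, 30 min RT.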

For assay [7] the test system is unchanged. Kind of assay: CHMC high cell density IgE activation: tryptase. Format: cell-based. How it is done:
as §1

Assay [8] has the same test system. Kind of assay: CHMC high cell density IgE activation: hexos. Format: cell-based. How it is done:
as §1
Add 50 uL of BMMC cell supernatant (see above) to the hexoseaminidase substrate, place at 37° C. for 30 minutes and read the plate at 5, 10, 15, and 30 minutes on a spectrophotometer.

The next assay deals with Primary human B-cells. Put plainly: Primary B-cell activation (α-IgM, CD69 upregulation). Format: cell-based. Conditions: read-out: 1° B-Cell CD69 IC50. How it is done:
Primary human B-cells were isolated from buffy coat, the white cell layer that forms between the red cells and the […] when anti-coagulated blood is centrifuged, or from fresh blood using CD19-Dynal® beads and a FACS. Buffy coat was obtained from the Stanford Medical School Blood Centre, prepared on the same day by the blood bank, stored and transported cold (with ice). The buffy coat (approx 35 mL) was placed in a 500 mL conical sterile centrifuge pot and cooled on ice, then diluted with cold PBS containing 0.2% BSA (Sigma: A7638) and sodium citrate (0.1%, Sigma: S-5570) (P—B—C) to a total volume of 200 mL and mixed gently. Fresh blood was collected from donors in 10 mL vacutainers containing heparin (1 vacutainer collects approximately 8.5 mL blood). The blood was cooled on ice, transferred into 50 mL falcon tubes (20 mL/tube) or a 500 mL conical sterile centrifuge pot, and diluted with an equal volume P—B—C.
25 mL diluted blood or buffy coat was layered onto 15 mL cold ficoll and placed back on ice. The ficoll layered blood was centrifuged (Beckman GS-6R) for 45 minutes at 2000 rpm, 4° C. to separate the Peripheral Blood Mononuclear Cells (PBMC) from the Red Blood Cells (RBC) and granulocytes. The top aqueous layer was then aspirated until 1 inch above the PBMC layer. The PBMCs were transferred from every 2 ficoll tubes into one clean 50 mL falcon tube (=approx 10 mL/tube). The transferred PBMCs were diluted 5× with icecold PBS with 0.2% BSA (P—B) and centrifuged for 20 min at 1400 rpm and 4° C. The supernatant (this may be cloudy) was then aspirated and the PBMCs resuspended into 25 mL P—B and the cells counted (using a 1:5 dilution) and kept on ice.
The cells were then positively selected using anti-CD 19 antibody coupled to magnetic beads (Dynal®) as per manufacturer's instructions. The approximate required amount of CD19-Dynal® beads (CD19-coated dyna beads M-450 (pabB), Dynal®) was calculated by estimating the number of B-cells as 5% of PBMCs counted and adding approximately10 beads per cell from the bead stock (4×10^8 beads/mL). The CD19-Dynal® beads were washed 2× in P—B in a 5 mL tube using the Dynal® magnet, then added into the suspended PBMCs. This mixture was then passed through the Dynal® magnet and washed several times to separate the bead-bound cells.
After separation, the beads and antibody were removed using Dynal® CD19-DETACHaBEAD® for 45 min at 30° C. Yield is typically 2×10^7 B-cells per buffy coat. B-cells were washed and resuspended as 1E6 cells/mL in RPMI1640+10% FBS+Penicillin/[…]+1 ng/mL IFNα8. Cells were rested overnight at 37° C. and 5% CO2.
The following day, cells were washed and resuspended in RPMI+2.5% FBS to 1×10^6 cells/mL. Cells were then aliquoted into a V-bottom 96-well plate (Corning) at 65 uL cells per well. By robot, 65 uL of a 2× compound was added to the cells with final concentration of DMSO at 0.2%, and incubated for 1 hr at 37° C. Cells were then stimulated with 20 uL 7.5× α-IgM from Jackson laboratories (final 5 ug/mL) for 24 hrs. At day 3, the cells were spun down and stained for CD69 and analyzed by FACS gated on the live cells (by light scatter).
Varied concentrations of compound were compared to solvent only to determine the inhibition of B-cell activation IC50 of each compound.

Assay [9] can be described thus: Mouse Reverse Passive Arthus reaction (RPA reaction). Format: in vivo, C57BL/6 mice. Conditions: oral, 200 mg/kg. How it is done:
In this model system, test compounds are administered at several timepoints prior to administration of Abs and Ags. A solution of rabbit anti-OVA IgG (50 μg in 25 μl/mouse) is injected intradermally, and immediately following is an intravenous injection of chicken egg albumin (20 mg/kg of body weight) in a solution containing 1% Evans blue dye. The degree of edema and hemorrhage is measured in the dorsal skin of C57BL/6 mice using the Evan's Blue dye as an indicator of local tissue damage. Purified polyclonal rabbit IgG is used as a control.
Pretreatment time, in which the test compounds are administered prior to Ab/Ag challenge, depends on the pharmacokinetic (PK) properties of each individual compound. Four hours after induction of Arthus reaction, mice are euthanized, and tissues are harvested for assessment of edema.

The subject of the next assay is Primary T-cells. Kind of assay: Primary T-cell cytokine production (αCD3/αCD28): IL-2. Format: cell-based, human. The settings on record: read-out: 1° T-Cell IL2 IC50. On the procedure:
2E8-4E8 PBMC or proliferating T cells grown in rIL-2 from healthy human donors were suspended in PBS were spun down (1500 rpm, 8-10 minutes) and resuspended in 100 ml RPMI Complete media (1% Pen-Strep, 1% L-Glutamine, 10 mM HEPES). The cells were plated in T175 flasks (37° C., 5% CO2) and monocytes were allowed to adhere for 2-3 hours. After monocyte attachment, non-adherent cells were harvested, counted by hemocytometer, washed several times with PBS then resuspended in Yssels Complete Media (Modified IMDM Media with 1% Human AB Serum, 1% Pen-Strep, 1% L-Glutamine, 10 mM HEPES) at […]. 90 uL of the cell dilution were then added to compounds diluted to 2× in Yssel's media and incubated for 30 minutes at 37° C. (5% CO2). After this preincubation step the compound/cell mixture was transferred to stimulation plates, as described below.
Stimulation plates were prepared by coating 96 well plates with 5 μg/ml αCD3 (BD PharMingen, Catalog #555336)+10 μg/ml αCD28 (Beckman Coulter, Catalog #IM1376) in PBS (no Ca^2+/Mg^2+) at 37° C. (5% CO2) for at 3-5 hours. After incubation with the stimulation antibodies, the cocktail was removed and the plates washed 3 times with PBS prior to addition of the primary T cell/compound mixture.
The compound/cell mixture was transferred to the stimulation plates and incubated for 18 hr at 37° C. (5% CO2). After the cell stimulation, ˜150 μl supernatant were transferred from each well into 96-well filter plates (Coming PVDF Filter Plates) spun down (2000 rpm, 2-3 minutes) and either used immediately for ELISA or LUMINEX measurements or frozen down at −80° C. for future use.
IL-2 ELISAs were performed using the Quantikine Human IL-2 ELISA kit (R&D Systems, Catalog # D2050) as described by the manufacturer and absorption was measured on a spectrophotometer at 450 nm wavelength. Blank values were substracted and absorbances were converted to pg/mL based on the standard curve.
Luminex immunoassay multiplexing for TNF, IL-2, GMSCF, IL-4 and IFNg was performed essentially as described by the manufacturer (Upstate Biotechnology). Essentially 50 uL of sample was diluted into 50 uL assay diluent and 50 uL incubation buffer, then incubated with 100 uL of the diluted detection antibody for 1 hr at RT in the dark. The filter plate was washed 2× in Wash Buffer, then incubated with 100 uL of the diluted secondary reagent (SAV-RPE) for 30 min at RT in the dark. Finally the plates were washed 3 times and bead identification and RPE fluorescent measured by the Luminex instrument.
Varied concentrations of compound were compared to solvent only to determine the inhibition of T-cell activation IC50 of each compound.

The next assay has as its target T1, Syk kinase (Homo sapiens, UniProt P43405).
T1 construct: purchased Upstate, Lake Placid NY
Put plainly: Syk kinase biochemical fluorescence polarization assay. The settings on record: isolated Syk kinase, fluorescence polarization, 4 uM ATP. For orientation: Fluorescence polarisation rises when a labelled molecule tumbles more slowly, as on binding a larger partner.

For assay [10], the system named is IgE-induced degranulation of tissue mast cells. Put plainly: Mouse model of passive cutaneous anaphylaxis (PCA). The class given is in vivo. Conditions: positive controls. On the procedure:
This model provides a direct measure of IgE-induced degranulation of tissue mast cells. In this model, IgE primed animals are exposed to an allergen challenge, and the change in permeability of dermal vasculature that results from histamine release from mast cells is measured by change in the amount of dye leakage into surrounding tissue. Inhibition of mediator release by compounds that modulate mast cell degranulation is easily measured by extracting the dye from the tissue.
In the PCA assay mice are passively sensitized by intradermal injection with anti-dinitrophenol (DNP) IgE antibodies (Day −1). At predetermined times animals are treated with the test agent (Day 0). The modulatory effect of the agent on cutaneous mast cell degranulation is measured following intravenous injection of DNP conjugated to human serum albumin (HSA-DNP), together with Evans blue dye. The resulting cross-linking of the IgE receptor and subsequent mast cell degranulation-induced increase in vascular permeability is determined by measuring the amount of dye extravasation into the tissue. Dye is extracted from the tissue by formamide, and the absorbance of this extract is read at 620 nm.

As for `CNC(=O)c1cc2cc(Nc3ncc(F)c(Nc4ccc5c(c4)OCCO5)n3)ccc2o1` [Compound R926496], the IC50 is 4390 nM in [1]; over 10000 nM in [2] (Low Density CHMC, ionomycin activation, tryptase release, read-out: CHMC Ionomycin Tryptase IC50); 414 nM in assay [3]; 622 nM in [4]; 809 nM in [5]; 571 nM in assay [6] (Low Density CHMC, anti-IgE activation, tryptase release, read-out: CHMC anti-IgE Tryptase IC50). Also, the IC50 in assay [7] came to 533 nM; in [8], 429 nM.
As for `CNC(=O)COc1cccc(Nc2ncc(F)c(Nc3ccc4c(c3)NC(=O)C(C)(C)O4)n2)c1` [Compound R940323], the IC50 was determined as 110 nM in the assay with Primary human B-cells and 557 nM in [1]. For the same molecule, in assay [9] (60 minutes prior to challenge), the “inhibition of edema formation” value was determined as 32.4%. The “% inhibition to vehicle control Edema Size ± SEM” value in assay [9] (pretreatment time 0.5 hrs) was 5.5 ± 9.3%; in [9] (pretreatment time 1 hrs), 32.4 ± 13.0% and 32.4%; in [9] (pretreatment time 2 hrs), 26.9 ± 11.2%.
Take `Cc1noc(COc2ccc(Nc3nc(Nc4ccc(OC(C)C)cc4)ncc3F)cc2)n1` [Compound R935144]: the IC50 was over 10000 nM in [1] and 13300 nM in the assay with Primary T-cells.
Regarding `COc1cc(Nc2ncc(F)c(Nc3ccc4c(c3)NC(=O)[C@H](C)O4)n2)cc(OC)c1` [Compound R908953], the IC50 in the assay on Primary human B-cells worked out at 1980 nM; against Syk kinase, 17 nM.
On to `CC1(C)Oc2ccc(Nc3nc(Nc4ccc5cc[nH]c5c4)ncc3F)cc2NC1=O` [Compound R926982], for which the IC50 in the assay with Primary human B-cells was 394 nM; in [2] (low cell density, read-out: CHMC Ionomycin Tryptase), over 10000 nM; against Syk kinase, 28 nM; in assay [6] (low cell density, read-out: CHMC anti-IgE Tryptase), 120 nM.
In the case of `Oc1cccc(Nc2nc(Nc3ccc(OCc4nc(-c5ccccc5)no4)cc3)ncc2F)c1` [Compound R935134], the values for the IC50 (in [1]; in the assay with Primary T-cells) were over 10000 nM and 36100 nM, respectively.
For `CCOc1ccc(Nc2nc(Nc3ccc4c(c3)OCCO4)ncc2F)cc1` [Compound R926213], the IC50 with Primary human B-cells (Homo sapiens, B-cell) was determined as 44000 nM; in [1] (Homo sapiens, Jurkat), 8860 nM.
Consider `CN(C)CCOC(c1ccccc1)c1ccccc1` [diphenhydramine, reference compound], for which, in assay [10], the PCA response entry was “inhibit the PCA response”.
For `CNC(=O)COc1cccc(Nc2ncc(F)c(Nc3ccc4cc[nH]c4c3)n2)c1` [Compound R926745], the IC50 in assay [1] is 1480 nM; in the assay with Primary T-cells it was 1500 nM.

Source of the values: patent publication US8158621B2, “Methods of treating or preventing autoimmune diseases with 2,4-pyrimidinediamine compounds” (Rigel Pharmaceuticals, Inc., priority 2002, dated 2012).
